In article PMC8743659, “C1632 suppresses the migration and proliferation of non‐small‐cell lung cancer cells involving LIN28 and FGFR1 pathway” (Journal of Cellular and Molecular Medicine, 2021):

Key:
FGFR1 = experiment: Western blot of FGFR1 signalling in NSCLC cells; type: cell-based, human; settings: Ponatinib, A549 and A549R cell lines
Protocol: The total cell protein was extracted and denaturized at 95°C for 10 min. Samples were separated in SDS‐PAGE gel, then transferred to a PVDF membrane. […] Blots were probed with relevant primary antibodies against FGFR1 (CST), p‐FGFR1 (CST), MAPK (CST), p‐MAPK (CST), FAK (CST), p‐FAK (CST), MMP‐9 (CST), LIN28B (CST), GAPDH (CST), and β‐actin (proteintech) overnight at 4°C, respectively. Then the lanes were detected with HRP‐conjugated secondary antibodies and visualized using WESTAR SUPERNOVA kit ([…]).

LIN28B = experiment: Western blot of LIN28B after FGFR1 inhibition; type: cell-based, human; settings: Ponatinib, A549 and A549R cell lines
Protocol: The total cell protein was extracted and denaturized at 95°C for 10 min. Samples were separated in SDS‐PAGE gel, then transferred to a PVDF membrane. Then this membrane was blocked with 5% non‐fat milk (solved in TBST) for 2.5 h at room temperature. Blots were probed with relevant primary antibodies against FGFR1 (CST), p‐FGFR1 (CST), MAPK (CST), p‐MAPK (CST), FAK (CST), p‐FAK (CST), MMP‐9 (CST), LIN28B (CST), GAPDH (CST), and β‐actin (proteintech) overnight at 4°C, respectively. Then the lanes were detected with HRP‐conjugated secondary antibodies and visualized using WESTAR SUPERNOVA kit (CYANAGEN).

With Cc1ccc(C(=O)Nc2ccc(CN3CCN(C)CC3)c(C(F)(F)F)c2)cc1C#Cc1cnc2cccnn12 [Ponatinib, reference compound] the “effect on FGFR1” value (FGFR1) was “inhibited FGFR1” and the “expression of LIN28B” value (LIN28B) was “suppressing the expression of LIN28B”.
